This passage reports IC50 results from US7226923B2, “Phthalazinone derivatives” (Hoffman-La Roche Inc., priority 2004, dated 2007).

The subject of one test is HCT 116 cells. The experiment in a line: CellTiter-Glo assay in HCT 116 cells. Type of test: cell-based, human. As to conditions: Homo sapiens, HCT-116, 120 h, 5 days incubation, 30 μM to 0.0015 μM. From the text: CellTiter-Glo™ Assay in HCT 116 Cells
The CellTiter-Glo™ Luminescent Cell Viability Assay (Promega) is a homogeneous method of determining the number of viable cells in culture based on quantitation of the ATP present, which signals the presence of metabolically active cells.
HCT 116 cells (human colon carcinoma, ATCC-No. CCl-247) were cultivated in RPMI 1640 medium with GlutaMAX™ I (Invitrogen, Cat-No. 61870-010), 2.5% Fetal Calf Serum (FCS, Sigma Cat-No. F4135 (FBS)); 100 Units/ml penicillin/100 μg/ml streptomycin (=Pen/Strep from Invitrogen Cat. No. 15140). For the assay the cells were seeded in 384 well plates, 1000 cells per well, in the same medium. The next day the test compounds were added in various concentrations ranging from 30 μM to 0.0015 μM (10 concentrations, 1:3 diluted). After 5 days the CellTiter-Glo™ assay was done according to the instructions of the manufacturer (CellTiter-Glo™ Luminescent Cell Viability Assay, from Promega). In brief: the cell-plate was equilibrated to room temperature for approximately 30 minutes and than the CellTiter-Glo™ reagent was added. The contents were carefully mixed for 15 minutes to induce cell lysis. After 45 minutes the luminescent signal was measured in Victor 2, (scanning multiwell spectrophotometer, Wallac).
1st. Day: • Medium: RPMI 1640 with GlutaMAX™ I (Invitrogen, Cat-Nr. 61870), 5% FCS (Sigma Cat.-No. F4135), Pen/Strep (Invitrogen, Cat No. 15140). • HCT116 (ATCC-No. CCl-247): 1000 cells in 60 μl per well of 384 well plate (Greiner 781098, μClear-plate white) • After seeding incubate plates 24 h at 37° C., 5% CO2
2nd. Day: Induction (Treatment with Compounds, 10 Concentrations):
In order to achieve a final concentration of 30 μM as highest concentration 3.5 μl of 10 mM compound stock solution were added directly to 163 μl media. Then step e) of the dilution procedure described below, was followed.
(Cellular ATP, detected with luciferase, serves as a proxy for viable cell number.)

Another test has as its target T1, Aurora A (Homo sapiens, UniProt O14965).
T1 construct: C-terminally Histidine4 (His4)-tagged Aurora A full-length protein
T1 sequence (O14965 1-403): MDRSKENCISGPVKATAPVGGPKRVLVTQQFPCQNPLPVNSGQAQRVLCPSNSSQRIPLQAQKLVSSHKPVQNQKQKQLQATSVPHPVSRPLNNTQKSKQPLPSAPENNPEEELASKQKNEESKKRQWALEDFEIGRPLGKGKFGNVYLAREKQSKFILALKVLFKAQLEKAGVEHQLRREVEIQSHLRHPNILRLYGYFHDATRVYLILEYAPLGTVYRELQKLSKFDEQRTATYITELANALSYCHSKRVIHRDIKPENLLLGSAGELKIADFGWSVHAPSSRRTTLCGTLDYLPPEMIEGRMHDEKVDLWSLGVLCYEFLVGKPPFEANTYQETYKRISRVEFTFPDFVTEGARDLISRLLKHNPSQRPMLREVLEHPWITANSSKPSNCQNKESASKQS
The experiment in a line: IC50 determination for inhibitors of Aurora A (96 MTP-ELISA). In kind it is biochemical. The note with it: His4-tagged full-length Aurora A 250 ng/ml, PKB-GSK2 200 nM, ATP 4 μM, 90 min at room temperature, read-out: IC50 Aurora A kinase inhibition. The protocol: IC50 Determination for Inhibitors of Aurora A
• Aurora A is a serine threonine kinase involved in spindle assembly and chromosome segregation.
The assay is a typically ELISA-type assay where biotinylated substrate (PKB-GSK2) is phosphorylated. Phosphorylation is detected by peroxidase (POD) labelled polyclonal antibody (PAK<M-Ig>S-IgG-POD) and phosphopeptide monoclonal antibody (Mab) (MAK<P-GSK>M-27E5-IgG). The assay is validated for IC50-determination.
Method • This assay is performed in 96-well format for IC50 determination with 5 samples (each with 8 concentrations by twofold testing), 100 μl incubation volume and the following plate layout: […]

In the case of `Cc1cc(Nc2nn(-c3ccc(S(=O)(=O)C(C)(C)C)cc3)c(=O)c3ccccc23)n[nH]1` [Example ZA-1, 2-[4-(2-Methyl-propane-2-sulfonyl)-phenyl]-4-(5-methyl-1H-pyrazol-3-ylamino)-2H-phthalazin-1-one], the IC50 lay within 100 to 10000 nM in the test with HCT 116 cells and 1 to 100 nM at Aurora A.
On the same counts, the results for `Cc1cc(Nc2nn(C)c(=O)c3ccccc23)n[nH]1` [Example A-3, 2-Methyl-4-(5-methyl-1H-pyrazol-3-ylamino)-2H-phthalazin-1-one] are 100 to 10000 nM and 100 to 1000 nM.
For `COC(=O)c1ccc2c(Nc3cc(C)[nH]n3)nn(C(C)C)c(=O)c2c1` [Example M-8, 3-Isopropyl-1-(5-methyl-1H-pyrazol-3-ylamino)-4-oxo-3,4-dihydro-phthalazine-6-carboxylic acid methyl ester], in that order: 100 to 10000 nM and 1 to 100 nM.
On the same counts, the results for `Cc1cc(Nc2nn(Cc3ccc([N+](=O)[O-])cc3)c(=O)c3ccccc23)n[nH]1` [Example B-3, 4-(5-Methyl-1H-pyrazol-3-ylamino)-2-(4-nitro-benzyl)-2H-phthalazin-1-one] are 100 to 10000 nM and 100 to 1000 nM.
As to `COc1ccc2c(=O)n(C(C)C)nc(Nc3cc(C)[nH]n3)c2c1` [Example G-9, 2-Isopropyl-6-methoxy-4-(5-methyl-1H-pyrazol-3-ylamino)-2H-phthalazin-1-one], the IC50 with HCT 116 cells lay within 100 to 10000 nM; at Aurora A, 1 to 100 nM.
On the same counts, the results for `COc1cccc(C(=O)Cn2nc(Nc3cc(C)[nH]n3)c3ccccc3c2=O)c1` [Example E-5, 2-[2-(3-Methoxy-phenyl)-2-oxo-ethyl]-4-(5-methyl-1H-pyrazol-3-ylamino)-2H-phthalazin-1-one] are 100 to 10000 nM and 1 to 100 nM.
On the same counts, the results for `Cc1cc(Nc2nn(Cc3ccccc3)c(=O)c3ccccc23)n[nH]1` [Example A-2, 2-Benzyl-4-(5-methyl-1H-pyrazol-3-ylamino)-2H-phthalazin-1-one] are 100 to 10000 nM and 65 nM.
On the same counts, the results for `CNC(=O)Nc1ccc2c(Nc3cc(C)[nH]n3)nn(C(C)C)c(=O)c2c1` [Example I-13, 1-[3-Isopropyl-1-(5-methyl-1H-pyrazol-3-ylamino)-4-oxo-3,4-dihydro-phthalazin-6-yl]-3-methyl-urea] are 100 to 10000 nM and 1 to 100 nM.
As to `CC(C)n1nc(Nc2cc(C3CC3)n[nH]2)c2ccc(N(C)C)cc2c1=O` [Example F-9, 4-(5-Cyclopropyl-2H-pyrazol-3-ylamino)-7-dimethylamino-2-isopropyl-2H-phthalazin-1-one], the IC50 with HCT 116 cells was 100 to 10000 nM; on Aurora A, 1 to 100 nM.
Consider `Cc1cc(Nc2nn(C(C)C)c(=O)c3cc(N(C)CCN4CCOCC4)ccc23)n[nH]1` [Example I-1, 2-Isopropyl-7-[methyl-(2-morpholin-4-yl-ethyl)-amino]-4-(5-methyl-1H-pyrazol-3-ylamino)-2H-phthalazin-1-one], for which the IC50 in the test on HCT 116 cells lay within 100 to 10000 nM; at Aurora A, 1 to 100 nM.
Consider `Cc1cc(Nc2nn(C(C)C)c(=O)c3cc(N4CCN(C)CC4)ccc23)[nH]n1` [Example F-5, 2-Isopropyl-7-(4-methyl-piperazin-1-yl)-4-(5-methyl-2H-pyrazol-3-ylamino)-2H-phthalazin-1-one], for which the IC50 with HCT 116 cells lay within 100 to 10000 nM; at Aurora A it was 1 to 100 nM.
Consider `CCC(C)c1ccc(-n2nc(Nc3cc(C)n[nH]3)c3ccccc3c2=O)cc1` (centres unmarked) [Example P-2, 2-(4-sec-Butyl-phenyl)-4-(5-methyl-2H-pyrazol-3-ylamino)-2H-phthalazin-1-one], for which the IC50 fell in the range of 10000 to 100000 nM in the test with HCT 116 cells and 1 to 100 nM at Aurora A.
On the same counts, the results for `Cc1cc(Nc2nn(-c3ccc(C(C)(C)C)cc3)c(=O)c3cc(NC=O)ccc23)[nH]n1` [Example ZB-1, N-[3-(4-tert-Butyl-phenyl)-1-(5-methyl-2H-pyrazol-3-ylamino)-4-oxo-3,4-dihydro-phthalazin-6-yl]-formamide] are 100 to 10000 nM and 1 to 100 nM.
For `Cc1cc(Nc2nn(Cc3ccccc3)c(=O)c3cc(N4CCOCC4)ccc23)n[nH]1` [Example F-4, 2-Benzyl-4-(5-methyl-1H-pyrazol-3-ylamino)-7-morpholino-2H-phthalazin-1-one], in that order: 100 to 10000 nM and 1 to 100 nM.
For `Cc1cc(Nc2nn(-c3ccncc3)c(=O)c3ccccc23)n[nH]1` [Example X-1, 4-(5-Methyl-1H-pyrazol-3-ylamino)-2-pyridin-4-yl-2H-phthalazin-1-one], in that order: 100 to 10000 nM and 100 to 1000 nM.
Take `Cc1cc(Nc2nn(C(C)C)c(=O)c3cc(N4CCOCC4)ccc23)n[nH]1` [Example F-1, 2-Isopropyl-4-(5-methyl-1H-pyrazol-3-ylamino)-7-morpholino-2H-phthalazin-1-one]: the concentration for half-maximal inhibition (IC50) in the test on HCT 116 cells lay within 100 to 10000 nM; on Aurora A, 1 to 100 nM.
As to `Cc1cc(Nc2nn(C(C)C)c(=O)c3cc(OCc4ccncc4)ccc23)n[nH]1` [Example G-4, 2-Isopropyl-4-(5-methyl-1H-pyrazol-3-ylamino)-7-(pyridin-4-ylmethoxy)-2H-phthalazin-1-one], the figures for the IC50 in the test on HCT 116 cells and at Aurora A were 100 to 10000 nM and 1 to 100 nM, respectively.
On the same counts, the results for `Cc1cc(Nc2nn(CC(F)(F)F)c(=O)c3ccccc23)n[nH]1` [Example A-5, 4-(5-Methyl-1H-pyrazol-3-ylamino)-2-(2,2,2-trifluoro-ethyl)-2H-phthalazin-1-one] are 100 to 10000 nM and 1 to 100 nM.
Consider `Cc1cc(Nc2nn(-c3ccc(OC(F)(F)F)cc3)c(=O)c3ccccc23)n[nH]1` [Example W-2, 4-(5-Methyl-1H-pyrazol-3-ylamino)-2-(4-trifluoromethoxy-phenyl)-2H-phthalazin-1-one], for which the results for the IC50 in the test with HCT 116 cells and on Aurora A were 100 to 10000 nM and 1 to 100 nM, respectively.
On the same counts, the results for `Cc1cc(Nc2nn(-c3cccc(C(F)(F)F)c3)c(=O)c3ccccc23)n[nH]1` [Example R-1, 4-(5-Methyl-1H-pyrazol-3-ylamino)-2-(3-trifluoromethyl-phenyl)-2H-phthalazin-1-one] are 100 to 10000 nM and 1 to 100 nM.
On the same counts, the results for `Cc1cc(Nc2nn(-c3ccc(N4CCOCC4)cc3)c(=O)c3ccccc23)n[nH]1` [Example U-2, 4-(5-Methyl-1H-pyrazol-3-ylamino)-2-(4-morpholin-4-yl-phenyl)-2H-phthalazin-1-one] are 100 to 10000 nM and 1 to 100 nM.
On the same counts, the results for `Cc1cc(Nc2nn(CC(O)c3ccccc3)c(=O)c3ccccc23)n[nH]1` (centres unmarked) [Example E-13, 2-(2-Hydroxy-2-phenyl-ethyl)-4-(5-methyl-1H-pyrazol-3-ylamino)-2H-phthalazin-1-one] are 10000 to 100000 nM and 100 to 1000 nM.
For `Cc1cc(Nc2nn(-c3ccc(NC(=O)C(C)(C)C)cc3)c(=O)c3ccccc23)n[nH]1` [Example T-3, 2,2-Dimethyl-N-{4-[4-(5-methyl-1H-pyrazol-3-ylamino)-1-oxo-1H-phthalazin-2-yl]-phenyl}-propionamide], the IC50 with HCT 116 cells lay within 100 to 10000 nM; at Aurora A, 100 to 1000 nM.
As for `COCc1ccc2c(Nc3cc(C)[nH]n3)nn(C(C)C)c(=O)c2c1` [Example K-1, 2-Isopropyl-7-methoxymethyl-4-(5-methyl-1H-pyrazol-3-ylamino)-2H-phthalazin-1-one], the figures for the IC50 in the test on HCT 116 cells and at Aurora A were 100 to 10000 nM and 1 to 100 nM, respectively.
For `COCCn1nc(Nc2cc(C)n[nH]2)c2ccccc2c1=O` [Example O-1, 2-(2-Methoxyethyl)-4-(5-methyl-2H-pyrazol-3-ylamino)-2H-phthalazin-1-one], in that order: 10000 to 100000 nM and 100 to 1000 nM.

By IC50 is commonly meant the point on the concentration scale where inhibition reaches its midpoint.
